From PMC7402526, “An in vitro quantitative systems pharmacology approach for deconvolving mechanisms of drug-induced, multilineage cytopenias” (PLoS Computational Biology, 2020)
“Also recorded” adds a separate entry of the source.

Assays:
MK cells (MK-lin) = experiment: MLTA, MK: concentration-response and QSP model fit; format: cell-based, human; settings: Homo sapiens, 144 h
In short: (§1)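 Parameters come from fitting an Emax-based QSP model, with L1 regularization and Emax ranging 0–2, to vehicle-normalized, bead-corrected flow cytometry counts. Counts came from human bone marrow CD34+ cells treated from day 0 through a 6-day multi-lineage cytokine culture in SFEM II, using 2–7 donors per drug.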

[1] = system: lymphocyte progenitors (LymP); experiment: MLTA, LymP: concentration-response and QSP model fit; format: cell-based, human; settings: Homo sapiens, Lymphocyte, 144 h
In short: as §1

[2] = system: human bone marrow-derived CD34+ cells differentiated into multiple hematopoietic lineages; experiment: MLTA, overall effects across hematopoietic lineages; format: cell-based; settings: 0.2-2500 nM, 6 days, relative to vehicle control
In short: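 Thawed primary human bone marrow CD34+ cells grown in SFEM II with a multi-lineage cytokine cocktail, drug added day 0, 6 days at 37°C, 5% CO2. Subsets counted by 17-parameter flow cytometry with TruCount beads, normalized to six vehicle wells per donor (2–7 donors); Emax model fitted per cell type.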

[3] = system: granulocyte-macrophage progenitor (GMPs); experiment: MLTA, GMPs: concentration-response and QSP model fit; format: cell-based, human; settings: Homo sapiens, 144 h
In short: as §1

[4] = system: neutrophils (neutrophil-lin); experiment: MLTA, Neut: concentration-response and QSP model fit; format: cell-based, human; settings: Homo sapiens, Neutrophil, 144 h
In short: as §1

[5] = system: total viable cells (totalViableCells); experiment: MLTA, total live cells concentration-response; format: cell-based; settings: Homo sapiens, 144 h, 6 days, normalized to vehicle control, read-out: total_live normalized cell count
In short: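 Freeze-thawed primary human bone marrow CD34+ cells in SFEM II with cytokine cocktail, drug added day 0, 6 days at 37°C, 5% CO2. Live/dead counts by 17-parameter flow cytometry with DAPI exclusion, bead-normalized, volume-corrected to cells/mL. Normalized per donor to mean of six vehicle wells; 2–7 donors pooled.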

[6] = system: granulocyte progenitor (Gran-lin prog); experiment: MLTA, GranP: concentration-response and QSP model fit; format: cell-based, human; settings: Homo sapiens, 144 h
In short: (§2)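 Six-day flow cytometry counts, bead-normalized and expressed relative to the mean of six vehicle wells, underlie each value. Cells were primary human bone marrow CD34+ cells cultured in SFEM II with cytokines promoting multi-lineage differentiation and self-renewal.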

granulocytes (Gran-lin) = experiment: MLTA, Gran: concentration-response and QSP model fit; format: cell-based, human; settings: Homo sapiens, 144 h
In short: as §2

[7] = QSP model fit of 6-day MLTA data

## CS(=O)(=O)N1CCN(Cc2cc3nc(-c4cccc5[nH]ncc45)nc(N4CCOCC4)c3s2)CC1 [pictilisib]
MK cells (MK-lin); [7]
  EC50: 1070 nM
MK cells (MK-lin); dose 0.2 nM, 6 days, normalized to vehicle control, read-out: MK normalized cell count
  activity at 0.0002 µM: 100%
MK cells (MK-lin); dose 1 nM, 6 days, normalized to vehicle control, read-out: MK normalized cell count
  activity at 0.001 µM: 107%
MK cells (MK-lin); dose 5 nM, 6 days, normalized to vehicle control, read-out: MK normalized cell count
  activity at 0.005 µM: 113%
MK cells (MK-lin); dose 25 nM, 6 days, normalized to vehicle control, read-out: MK normalized cell count
  activity at 0.025 µM: 85.6%
MK cells (MK-lin); dose 100 nM, 6 days, normalized to vehicle control, read-out: MK normalized cell count
  activity at 0.1 µM: 78.4%
MK cells (MK-lin); dose 500 nM, 6 days, normalized to vehicle control, read-out: MK normalized cell count
  activity at 0.5 µM: 49.7%
MK cells (MK-lin); dose 2500 nM, 6 days, normalized to vehicle control, read-out: MK normalized cell count
  activity at 2.5 µM: 16.8%
MK cells (MK-lin); parameter from QSP model fitting, read-out: Emax_drug_MK
  Emax: 12.3%
[1]; dose 0.2 nM, 6 days, normalized to vehicle control, read-out: LymP normalized cell count
  activity at 0.0002 µM: 93.3%
[1]; dose 1 nM, 6 days, normalized to vehicle control, read-out: LymP normalized cell count
  activity at 0.001 µM: 105%
[1]; dose 5 nM, 6 days, normalized to vehicle control, read-out: LymP normalized cell count
  activity at 0.005 µM: 86.9%
[1]; dose 25 nM, 6 days, normalized to vehicle control, read-out: LymP normalized cell count
  activity at 0.025 µM: 77.7%
[1]; dose 100 nM, 6 days, normalized to vehicle control, read-out: LymP normalized cell count
  activity at 0.1 µM: 49.6%
[1]; dose 500 nM, 6 days, normalized to vehicle control, read-out: LymP normalized cell count
  activity at 0.5 µM: 46.4%
[1]; dose 2500 nM, 6 days, normalized to vehicle control, read-out: LymP normalized cell count
  activity at 2.5 µM: 19.2%
[1]; parameter from QSP model fitting, read-out: Emax_drug_LymP
  Emax: 0.032%
[2]
  effect on hematopoietic cell numbers across cell types: moderate reduction of cells types; also recorded: decreased most cell types
[3]; [7]
  EC50: 1.41 nM
[3]; dose 0.2 nM, 6 days, normalized to vehicle control, read-out: GMPs normalized cell count
  activity at 0.0002 µM: 95.6%
[3]; dose 1 nM, 6 days, normalized to vehicle control, read-out: GMPs normalized cell count
  activity at 0.001 µM: 97.9%
[3]; dose 5 nM, 6 days, normalized to vehicle control, read-out: GMPs normalized cell count
  activity at 0.005 µM: 92.7%
[3]; dose 25 nM, 6 days, normalized to vehicle control, read-out: GMPs normalized cell count
  activity at 0.025 µM: 75.4%
[3]; dose 100 nM, 6 days, normalized to vehicle control, read-out: GMPs normalized cell count
  activity at 0.1 µM: 62.5%
[3]; dose 500 nM, 6 days, normalized to vehicle control, read-out: GMPs normalized cell count
  activity at 0.5 µM: 39.5%
[3]; dose 2500 nM, 6 days, normalized to vehicle control, read-out: GMPs normalized cell count
  activity at 2.5 µM: 22.5%
[4]; [7]
  EC50: 132 nM
[4]; dose 0.2 nM, 6 days, normalized to vehicle control, read-out: Neut normalized cell count
  activity at 0.0002 µM: 92.7%
[4]; dose 1 nM, 6 days, normalized to vehicle control, read-out: Neut normalized cell count
  activity at 0.001 µM: 82.6%
[4]; dose 5 nM, 6 days, normalized to vehicle control, read-out: Neut normalized cell count
  activity at 0.005 µM: 64.5%
[4]; dose 25 nM, 6 days, normalized to vehicle control, read-out: Neut normalized cell count
  activity at 0.025 µM: 59.8%
[4]; dose 100 nM, 6 days, normalized to vehicle control, read-out: Neut normalized cell count
  activity at 0.1 µM: 30.4%
[4]; dose 500 nM, 6 days, normalized to vehicle control, read-out: Neut normalized cell count
  activity at 0.5 µM: 6.17%
[4]; dose 2500 nM, 6 days, normalized to vehicle control, read-out: Neut normalized cell count
  activity at 2.5 µM: 0.529%
[4]; parameter from QSP model fitting, read-out: Emax_drug_Neut
  Emax: 16.5%
[5]; dose 0.2 nM
  viability at 0.0002 µM: 97.8%
[5]; dose 1 nM
  viability at 0.001 µM: 96.4%
[5]; dose 5 nM
  viability at 0.005 µM: 91.2%
[5]; dose 25 nM
  viability at 0.025 µM: 84%
[5]; dose 100 nM
  viability at 0.1 µM: 60.1%
[5]; dose 500 nM
  viability at 0.5 µM: 33.9%
[5]; dose 2500 nM
  viability at 2.5 µM: 12.9%
[6]; QSP model fit of 6-day MLTA data, read-out: EC50GranP
  EC50: 93 nM
[6]; dose 0.2 nM, 6 days, normalized to vehicle control, read-out: GranPs normalized cell count
  activity at 0.0002 µM: 95.5%
[6]; dose 1 nM, 6 days, normalized to vehicle control, read-out: GranPs normalized cell count
  activity at 0.001 µM: 100%
[6]; dose 5 nM, 6 days, normalized to vehicle control, read-out: GranPs normalized cell count
  activity at 0.005 µM: 101%
[6]; dose 25 nM, 6 days, normalized to vehicle control, read-out: GranPs normalized cell count
  activity at 0.025 µM: 84%
[6]; dose 100 nM, 6 days, normalized to vehicle control, read-out: GranPs normalized cell count
  activity at 0.1 µM: 70.2%
[6]; dose 500 nM, 6 days, normalized to vehicle control, read-out: GranPs normalized cell count
  activity at 0.5 µM: 60.8%
[6]; dose 2500 nM, 6 days, normalized to vehicle control, read-out: GranPs normalized cell count
  activity at 2.5 µM: 28.4%
[6]; parameter from QSP model fitting, read-out: Emax_drug_GranP
  Emax: 60.5%
Granulocytes (Gran-lin); [7]
  EC50: 0.167 nM
Granulocytes (Gran-lin); dose 0.2 nM, 6 days, normalized to vehicle control, read-out: Gran normalized cell count
  activity at 0.0002 µM: 99.2%
Granulocytes (Gran-lin); dose 1 nM, 6 days, normalized to vehicle control, read-out: Gran normalized cell count
  activity at 0.001 µM: 100%
Granulocytes (Gran-lin); dose 5 nM, 6 days, normalized to vehicle control, read-out: Gran normalized cell count
  activity at 0.005 µM: 90.3%
Granulocytes (Gran-lin); dose 25 nM, 6 days, normalized to vehicle control, read-out: Gran normalized cell count
  activity at 0.025 µM: 78.6%
Granulocytes (Gran-lin); dose 100 nM, 6 days, normalized to vehicle control, read-out: Gran normalized cell count
  activity at 0.1 µM: 51.4%
Granulocytes (Gran-lin); dose 500 nM, 6 days, normalized to vehicle control, read-out: Gran normalized cell count
  activity at 0.5 µM: 27.9%
Granulocytes (Gran-lin); dose 2500 nM, 6 days, normalized to vehicle control, read-out: Gran normalized cell count
  activity at 2.5 µM: 9.84%
Granulocytes (Gran-lin); parameter from QSP model fitting, read-out: Emax_drug_Gran
  Emax: 23.2%
